Our source for the inhibition values is patent US7271192B2, “Substituted 2-pyrrolidine-2-yl-1H-indole compounds” (Gruenenthal GmbH, priority 2001, dated 2007).

The assay deals with T1, nNOS (Rattus norvegicus, UniProt P29476).
T1 construct: Rat cerebelli were used as the starting tissue; from tissue; host or cells: rat cerebellum (20,000 g supernatant of homogenate)
Put plainly: NOS assay (HTS NOS assay, radioactive arginine, filter plate). In kind it is biochemical. As to conditions: enzyme preparation from rat cerebelli. The protocol:
This assay allows the determination of the percentage inhibition of NO synthase by an active compound by means of measurement of the NOS activity under the action of the active compound. In this procedure, NO synthase is mixed together with radioactively labelled arginine and the active compound under suitable conditions. After discontinuation of the NO formation reaction at a given point in time, the amount of unreacted arginine is determined directly or indirectly. Comparison of this amount with the amount of arginine which remains in a sample from the mixture of NOS and arginine without the addition of active compound and under otherwise identical conditions gives the % inhibition of NO synthase by the active compound tested. This assay can be carried out as follows:
incubation of NO synthase with labelled arginine as the substrate in a reaction vessel,
separation of the labelled arginine from the labelled citrulline possibly formed as the product of the enzymatic reaction at a point in time at which the concentration of citrulline increases,
measurement of the amount of arginine separated off in the particular case.
The separation is carried out via a filter plate membrane.
This NOS assay is particularly suitable for a “high throughput screening” (HTS) on microtitre plates (MTP).
In this HTS NOS assay, radioactive arginine is used as the substrate. The assay volume can be chosen in the range between 25 μl and 250 μl, depending on the nature of the microtitre plate (MTP). Cofactors and coenzymes are added, depending on the enzyme source used. The incubation of the batches in this microtitre plate (assay MTP) according to step (a) is carried out at room temperature and is between 5 and 60 minutes, depending on the enzyme activity (units) used. At the end of the incubation (step (a)), the plate is placed in a cell harvester equipped with an MTP which has a cation exchange membrane as the filter base (filter MTP). All the batches of the assay MTP are transferred into this filter MTP and filtered with suction over a cation exchanger filter plate, a paper filter loaded with phosphate groups. The filter MTP is then washed with buffer or water. The arginine substrate which remains is bonded to the cation exchanger with the aid of this procedure, while the radioactive citrulline formed enzymatically is washed out quantitatively. After drying of the filter MTP and addition of scintillation liquid, the arginine bonded can be counted on a scintillation counter. A non-inhibited NOS reaction is reflected in a low radioactivity. An inhibited enzyme reaction means that the radioactive arginine has not been reacted, i.e. there is a high radioactivity on the filter.
Arginine, L-[2,3,4-^3H]-monohydrochloride; order no. NET-1123, NEN • CaCl2, anhydrous; order no. 2388.1000; Merck KGaA • 1,4-dithiothreitol (DTT), order no. 708984; ROCHE • Na2EDTA-dihydrate; order no. 03680; FLUKA • HEPES, order no. H-3375; SIGMA • NADPH, tetrasodium salt; order no. 1585363; ROCHE • TRIS; ORDER no. 93349; FLUKA
Enzyme preparation buffer: 50 mM Tris-HCl with 1 mM EDTA: The pH of the buffer was adjusted to 7.4 at 4° C.
Incubation buffer (medium): 50 mM HEPES with 1 mM EDTA; 1.25 mM CaCl2 and 1 mM dithiothreitol.
The pH of the buffer was adjusted to 7.4 at 25° C.
Rat cerebelli were used as the starting tissue. The animals were narcotized and sacrificed, the brain tissue, the cerebellum, was removed, 1 ml of enzyme preparation buffer was added (4° C.) per rat cerebellum and the tissue was broken down with a Polytron homogeniser for 1 min at 6,000 rpm. Centrifugation at 4° C. for 15 min at 20,000 g and subsequent decanting of the supernatant and freezing in portions at −80° C. (precipitate discarded) then took place.
Compounds according to the invention were tested for nNOS inhibition in the NOS assay described above.
Turning to `CCN(CC)CCn1c(C2CCCN2C(=O)c2ccco2)c(-c2ccccc2)c2cc(Cl)ccc21` (centres unmarked) [Example 9, {2-[5-Chloro-1-(2-diethylamino-ethyl)-3-phenyl-1H-indol-2-yl]-pyrrolidin-1-yl}-furan-2-yl-methanone], the inhibition at 10 µM was 45%.

For the compound `CCOC(=O)CCC(=O)N1CCCC1c1c(-c2ccccc2)c2cc(Cl)ccc2n1CCN(CC)CC` (centres unmarked) [Example 12, 4-{2-[5-Chloro-1-(2-diethylamino-ethyl)-3-phenyl-1H-indol-2-yl]-pyrrolidin-1-yl)-4-oxo-butyric acid ethyl ester], the inhibition at 10 µM amounted to 34%.

`CCN(CC)CCn1c(C2CCCN2C(=O)c2ccc(F)cc2)c(-c2ccccc2)c2cc(Cl)ccc21` (centres unmarked) [Example 13, {2-[5-Chloro-1-(2-diethylamino-ethyl)-3-phenyl-1H-indol-2-yl]-pyrrolidin-1-yl}-(4-fluoro-phenyl)-methanone]: the inhibition at 10 µM stood at 47%.

`CCN(CC)CCn1c(C2CCCN2C(=O)C2CCC2)c(-c2ccccc2)c2cc(Cl)ccc21` (centres unmarked) [Example 15, {2-[5-Chloro-1-(2-diethylamino-ethyl)-3-phenyl-1H-indol-2-yl]-pyrrolidin-1-yl}-cyclobutyl-methanone]: the inhibition at 10 µM is 38%.

Regarding `CCN(CC)CCn1c(C2CCCN2C(=O)c2ccc(Cl)nc2)c(-c2ccccc2)c2cc(Cl)ccc21` (centres unmarked) [Example 17, {2-[5-Chloro-1-(2-diethylamino-ethyl)-3-phenyl-1H-indol-2-yl]-pyrrolidin-1-yl)-(6-chloro-pyridin-3-yl)-methanone], the inhibition at 10 µM is 36%.

Take `CCCCCC(=O)N1CCCC1c1c(-c2ccccc2)c2cc(Cl)ccc2n1CCN(CC)CC` (centres unmarked) [Example 20, 1-{2-[5-Chloro-1-(2-diethylamino-ethyl)-3-phenyl-1H-indol-2-yl]-pyrrolidin-1-yl}-hexan-1-one]: the inhibition at 10 µM came out at 35%.

Take `CCN(CC)CCn1c(C2CCCN2C(=O)c2cc(OC)cc(OC)c2)c(-c2ccccc2)c2cc(Cl)ccc21` (centres unmarked) [Example 26, {2-[5-Chloro-1-(2-diethylamino-ethyl)-3-phenyl-1H-indol-2-yl]-pyrrolidin-1-yl}-(3,5-dimethoxy-phenyl)-methanone]: the inhibition at 10 µM was determined as 51%.

With `CCOc1ccc(C(=O)N2CCCC2c2c(-c3ccccc3)c3cc(Cl)ccc3n2CCN(CC)CC)cc1` (centres unmarked) [Example 28, {2-[5-Chloro-1-(2-diethylamino-ethyl)-3-phenyl-1H-indol-2-yl]-pyrrolidin-1-yl}-(4-ethoxy-phenyl)-methanone], the inhibition at 10 µM turned out to be 41%.

For the compound `COCCOCC(=O)N1CCCC1c1c(-c2ccccc2)c2cc(Cl)ccc2n1C` (centres unmarked) [Example 35, 1-[2-(5-Chloro-1-methyl-3-phenyl-1H-indol-2-yl)-pyrrolidin-1-yl]-2-(2-methoxy-ethoxy)-ethanone], the inhibition at 10 µM is 41%.

Regarding `Cn1c(C2CCCN2C(=O)C2CC2)c(-c2ccccc2)c2cc(Cl)ccc21` (centres unmarked) [Example 48, [2-(5-Chloro-1-methyl-3-phenyl-1H-indol-2-yl)-pyrrolidin-1-yl]-cyclopropyl-methanone], the inhibition at 10 µM was found to be 35%.

Consider `CC#CCn1c(C2CCCN2C(=O)COC)c(-c2ccccc2)c2cc(Cl)ccc21` (centres unmarked) [Example 73, 1-[2-(1-But-2-ynyl-5-chloro-3-phenyl-1H-indol-2-yl)-pyrrolidin-1-yl]-2-methoxy-ethanone], for which the inhibition at 10 µM is 54%.

As usually defined, the inhibition is the percentage by which the read-out fell short of the control.
